# According to US20170226507A1, “COORDINATE CONTROL OF PATHOGENIC SIGNALING BY THE MIR-130/301 FAMILY IN PULMONARY HYPERTENSION AND FIBROPROLIFERATIVE DISEASES” (The Brigham and Women's Hospital, Inc., priority 2014, published 2017):
# Entries after “also recorded” stand apart in the source; their conditions may differ. No end group written: not given here.
# Columns and labels:
# [1] = test system: Bleomycin-induced lung fibrosis in mice; assay: Bleomycin-induced lung fibrosis in mice; format: in vivo, mouse
# [2] = test system: hypoxia-induced PH in mice; assay: Hypoxia-induced PH in mice: BAPN (prevention, rescue) or GW3965 (prevention); format: in vivo, mouse
# Source text: Finally, we wanted to determine if ApoE activity and/or LOX-dependent vascular stiffening were essential for ECM stiffening and PH development by miR-130/301. To assess the importance of ApoE activity, we attempted to prevent PH in mice via treatment with daily dietary ingestion of the liver-X nuclear hormone receptor (LXR) agonist GW3965, a known pharmacologic inducer of ApoE (Pencheva et al., 2014), simultaneously with hypoxia (FIGS. 62A-62H and 68A-H). Alternatively, experiments were designed to either prevent or reverse hypoxia-induced PH in mice via serial treatment with a pharmacologic inhibitor of LOX (Levental et al., 2009), β-aminopropionitrile BAPN, administered either simultaneously with hypoxia exposure (“prevention”) or after disease development (“reversal”) (FIGS. 62A-62H and 68A-H). In all cases of GW3965 or BAPN treatment, collagen crosslinking (FIG. 62D, 62H, FIG. 68) was inhibited, leading to decreased indices of PH, as reflected by RVSP (FIG. 62A, 62E), right ventricular remodeling (RV/LV+S ratio; FIG. 62B, 62F) and pulmonary arteriolar muscularization (FIG. 62C, 62G). GW3965 or BAPN treatment also reversed Pparγ and Lrp8 down-regulation (FIGS. 68A-68H) as well as reduced YAP nuclear localization (FIG. 62D, 62H) and YAP activation, as reflected by decreased Ctgf (FIGS. 68A-68H). Thus, considering the convergent data regarding pharmacologic manipulation of miR-130/301, APOE, and LOX, we can conclude that the YAP-TAZ-miR-130/301 circuit and its downstream network of targets act as master regulators of ECM remodeling in PH and represent a new set of targets for tailored molecular therapy in this disease.
# To determine the effects of the LXR agonist GW3965 (Sigma-Aldrich) and consequent APOE induction on PH development, as previously described (Pencheva et al., 2014), mice were exposed to normobaric hypoxia and simultaneously assigned to control chow or chow supplemented with GW3965 (Research Diets, Inc.) at doses of 100 mg of drug per kilogram of mouse per day (based on average daily intake of […] of chow).
# Picrosirius Red stain was achieved through the use of 5 μm paraffin sections stained with 0.1% Picrosirius Red (Direct Red80, Sigma-Aldrich) and counterstained with Weigert's hematoxylin to reveal fibrillar collagen. The sections were then serially imaged using with an analyzer and polarizer oriented parallel and orthogonal to each other. Microscope conditions (lamp brightness, condenser opening, objective, zoom, exposure time, and gain parameters) were constant throughout the imaging of all samples. A minimal threshold was set on appropriate control sections for each experiment in which only the light passing through the orthogonally-oriented polarizers representing fibrous structures (i.e., excluding residual light from the black background) was included. The threshold was maintained for all images across all conditions within each experiment. The area of the transferred regions that was covered by the thresholded light was calculated and at least 10 sections/vessel per condition were averaged together (Image J software).
# This protocol was adapted from a previously published protocol (Hu et al.). Mouse lung was weighed, minced, and incubated in 0.5 M acetic acid at 4° C. After overnight digestion, the acetic acid-soluble and insoluble fractions were isolated by centrifugation. The soluble fraction was stored at −80° C., while the insoluble fraction was digested by overnight incubation in 6M hydrochloric acid at 85° C. Concentrations of soluble and insoluble (gelatinous) collagen fractions were determined using a Sircol Soluble Collagen Assay Kit (Biocolor) with a colorimetric reaction (measured at 550 nm) and a provided collagen reference standard curve.
# [3] = test system: liver-X nuclear hormone receptor (LXR); assay: Oral LXR agonist GW3965 in bleomycin-exposed mice (lung fibrosis); format: in vivo, mouse; settings: 100 mg/kg/day in chow
# Protocol: C57BL/6 mice (7-8 weeks old) were exposed to 0.035 U of bleomycin via oropharyngeal route. In the control group, saline (PBS) was administered via the same route. Mice were euthanized 14 days or 21 days after bleomycin administration. To determine the effects of the LXR agonist GW3965 (Sigma-Aldrich) and consequent APOE induction on lung fibrosis, as previously described^12, mice were exposed to bleomycin (as described above) and simultaneously assigned to control chow or chow supplemented with GW3965 (Research Diets, Inc.) at doses of 100 mg of drug per kilogram of mouse per day (based on average daily intake of […] of chow). After two weeks, harvest of lung tissue was performed for RNA/protein extraction or paraffin embedding. Messenger RNAs were reverse transcribed using the Multiscript RT kit (Life Technologies) to generate cDNA. cDNA was amplified via fluorescently labeled Taqman primer sets using an Applied Biosystems 7900HT Fast Real Time PCR device. […] A primary antibody against YAP1 (#4912; 1/200) was obtained from Cell Signaling. Primary antibodies against, LRP8 (ab115196; 1/100), α-SMA (1/400) were purchased from Abcam. Primary antibodies against PPARγ (sc-7273; 1/50) was purchased from Santa Cruz. Primary antibody against anti-shortmer ([…]-[…]; 1/1000) was provided by Regulus Therapeutics, as previously described^2. […] Pictures were obtained using an Olympus Bx51 microscope. For liver tissue and pulmonary tissue, 10 random 20× fields per animal were analyzed. Intensity of staining was quantified using ImageJ software (NIH). […] Degree of liver fibrosis was assessed in paraffin-embedded liver sections stained for α-SMA by […] score^65. All measurements were performed blinded to condition. […] The sections were then serially imaged using with an analyzer and polarizer oriented parallel and orthogonal to each other. Microscope conditions (lamp brightness, condenser opening, objective, zoom, exposure time, and gain parameters) were constant throughout the imaging of all samples. A minimal threshold was set on appropriate control sections for each experiment in which only the light passing through the orthogonally-oriented polarizers representing fibrous structures (i.e., excluding residual light from the black background) was included. The threshold was maintained for all images across all conditions within each experiment. The area of the transferred regions that was covered by the thresholded light was calculated and at least 10 sections per condition were averaged together (Image J software).
# STAT3 = STAT3 phosphorylation in PASMCs (conditioned media from PAECs or endothelin-1; immunoblot); format: cell-based, human; settings: direct exposure to endothelin-1
# Protocol: (§1) (FIG. 40A) A schematic diagram of co-culture experiments: conditioned media from transfected PAECs (miRNA, anti-miRNA, tiny-LNA or siRNA under normoxic or hypoxic conditions) were filtered and applied onto naïve PASMCs cultured in matrigel. At specific times, PASMCs or PASMC-matrigel cultures were arrested and analyzed for STAT3 activation (phosphorylation) or contraction, respectively.
# (§2) 50000 PASMC were embedded in 100 ul of matrix gel as previous described (Gagiolli et al) and plated into well of a 96 well plate. After 1 h at 37° C., these matrices were overlaid with 100 ul of conditioned PAECs serum-free medium (transfected with siRNA, miRNA or anti-miRNA and supplemented with Ambriesentan 10 uM). Every 12 h, medium was changed and at day 4 the gels were photographed and the relative diameter of the well and the gel were measured using ImageJ. The percentage contraction was calculated using the formula 100*(well diameter−gel diamter)/well diameter. For the co-culture experiment, conditioned media from PAEC transfected as indicated were applied on PASMCs or Fibroblast previously starved (24 h). Cells were collected at different time and analyzed by western blotting.
# Cells were lysed in RIPA buffer (Santa Cruz Biotechnology) and the protein concentration determined using a Bradford assay (Biorad). Protein lysate ([…]) were resolved by SDS-PAGE and transferred onto a PVDF membrane (Biorad). Membranes were blocked in 5% non-fat milk in TN buffer (50 mM Tris-HCl pH 7.4, 150 mM NaCl) and incubated in the presence of the primary and then secondary antibodies. After washing in TN buffer containing 0.1% Tween, immunoreactive bands were visualized with the ECL system (Amersham Biosciences). […] Primary antibodies for STAT3 (#9139) and P-STAT3 (Tyr-705; #9145) were purchased from Cell Signaling. Primary antibodies against actin (ab 3280), was obtained from Abcam. Appropriate secondary antibodies (anti-rabbit and anti-mouse) coupled to HRP were used (Santa Cruz Biotechnology).
# PASMCs = assay: Contraction assay of PASMCs in matrigel; format: cell-based, human; settings: endothelin-1 for 4 days vs vehicle
# Protocol: as §1, §2
molecule,measurement,setting,value
O=C(O)Cc1cccc(OCCCN(Cc2cccc(C(F)(F)F)c2Cl)CC(c2ccccc2)c2ccccc2)c1 [GW3965],Pparγ and Lrp8 (and Timp2) expression,[1]; IHC / in situ stain,blunted
same,"Ctgf, collagen isoforms and Lox transcripts",[1]; RT-PCR,reduced
same,collagen deposition and cross-linking,[1]; Short-130 20 mg/kg i.p. or GW3965 100 mg/kg dietary,blunted
same,"lung fibrosis (α-SMA, collagen staining, Ashcroft score)",[1]; Short-130 or GW3965 100 mg/kg dietary,ameliorated
same,Yap nuclear localization / YAP,[1]; in situ stain,blunted
same,perivascular collagen crosslinking,[2]; Picrosirius Red,inhibited; also recorded: decreased
same,"Ctgf, collagen isoforms, and Lox in lung",[2]; RT-qPCR,blunted
same,whole lung collagen content and crosslinked collagen,[2]; Sircol assay,nearly normalized
same,arteriolar muscularization,[2]; hypoxic mice,decreased; also recorded: prevented
same,"right ventricular hypertrophy (Fulton index, RV/LV+S)",[2]; hypoxic mice,decreased; also recorded: prevented
same,RVSP,"[2]; hypoxic mice, BAPN prevention and rescue, GW3965 100 mg/kg/day in chow, 100 mg/kg/day",decreased; also recorded: prevented
same,hypoxia mediated decreases of Lrp8 and Pparγ,[2]; in situ staining,reversed; also recorded: prevented
same,hypoxia-mediated increases of α-SMA and YAP,[2]; in situ staining,reduced; also recorded: blunted
same,Pparγ and Lrp8 down-regulation,[3],reversed
same,"YAP activation, Ctgf expression",[3],decreased
same,YAP nuclear localization,[3],reduced
same,collagen crosslinking,[3]; two weeks,inhibited
same,"indices of lung fibrosis, Ashcroft score",[3]; two weeks,decreased
"endothelin-1: recombinant human EDN1 applied to PASMCs at 1 nM (CSCSSLMDKECVYFCHLDIIW; ends and bridges not checked; cysteine pairing not given here; UniProt P05305 53-73, looked up)",STAT3 phosphorylation in PASMCs,STAT3,time-dependent increase
same,STAT3 phosphorylation in PASMCs,STAT3; listed as EDN1,increased
same,matrigel contraction of PASMC culture,PASMCs,led to matrigel contraction
same,matrigel contraction of PASMC culture,PASMCs; listed as EDN1,increased
